How the values were obtained:
Assay in all cases: area under dose-response curve of surviving fraction (unscaled, Aref=0) (surviving fraction x log10(nM)); higher = more resistant
Details in all cases: exposure time: 5 days; dose range 0.5-1000 nM
ERLOTINIB = compound: C#Cc1cccc(Nc2ncnc3cc(OCCOC)c(OCCOC)cc23)c1 [ERLOTINIB]
Outline: (§1)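 Surviving fractions were fitted by 3-parameter logistic regression in the drc R package to give dose-response survival curves. They came from tumour cell lines treated for five days with eight inhibitor concentrations from 0.5 to 1000 nM and read by CellTiter-Glo luminescence against DMSO-only wells. The area under the curve is the unscaled activity area. It was calculated over log10 dose with Aref = 0.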

VINORELBINE = compound: CCC1=C[C@@H]2CN(C1)Cc1c([nH]c3ccccc13)[C@@](C(=O)OC)(c1cc3c(cc1OC)N(C)[C@H]1[C@@](O)(C(=O)OC)[C@H](OC(C)=O)[C@]4(CC)C=CCN5CC[C@]31[C@@H]54)C2 [VINORELBINE]
Outline: as §1

PLX-4720 = compound: CCCS(=O)(=O)Nc1ccc(F)c(C(=O)c2c[nH]c3ncc(Cl)cc23)c1F [PLX-4720]
Outline: as §1

SUNITINIB = compound: CCN(CC)CCNC(=O)c1c(C)[nH]c(/C=C2\C(=O)Nc3ccc(F)cc32)c1C [SUNITINIB]
Outline: as §1

EVEROLIMUS = compound: CO[C@H]1C[C@@H]2CC[C@@H](C)[C@@](O)(O2)C(=O)C(=O)N2CCCC[C@H]2C(=O)O[C@H]([C@H](C)C[C@@H]2CC[C@@H](OCCO)[C@H](OC)C2)CC(=O)[C@H](C)/C=C(\C)[C@@H](O)[C@@H](OC)C(=O)[C@H](C)C[C@H](C)/C=C/C=C/C=C/1C [EVEROLIMUS]
Outline: as §1

AZD4547 = compound: COc1cc(CCc2cc(NC(=O)c3ccc(N4CC(C)NC(C)C4)cc3)n[nH]2)cc(OC)c1 [AZD4547]
Outline: as §1

ETOPOSIDE = compound: COc1cc([C@@H]2c3cc4c(cc3[C@@H](O[C@@H]3O[C@@H]5CO[C@@H](C)O[C@H]5[C@H](O)[C@H]3O)[C@H]3COC(=O)[C@H]23)OCO4)cc(OC)c1O [ETOPOSIDE]
Outline: as §1

[1] = compound: Cc1nc(Nc2n[nH]c3c2CN(C(=O)N[C@H](CN(C)C)c2ccccc2)C3(C)C)c2sccc2n1
Outline: as §1

GEMCITABINE = compound: Nc1ccn([C@@H]2O[C@H](CO)[C@@H](O)C2(F)F)c(=O)n1 [GEMCITABINE]
Outline: as §1

[2] = compound: O=C(NOCC1CC1)c1ccc(F)c(F)c1Nc1ccc(I)cc1Cl
Outline: as §1

MK0752 = compound: O=C(O)CC[C@H]1CC[C@@](c2cc(F)ccc2F)(S(=O)(=O)c2ccc(Cl)cc2)CC1 [MK0752]
Outline: as §1

METHOTREXATE = compound: CN(Cc1cnc2nc(N)nc(N)c2n1)c1ccc(C(=O)N[C@@H](CCC(=O)O)C(=O)O)cc1 [METHOTREXATE]
Outline: as §1

MK2206 = compound: NC1(c2ccc(-c3nc4ccn5c(=O)[nH]nc5c4cc3-c3ccccc3)cc2)CCC1 [MK2206]
Outline: as §1

Test System | area under dose-response curve (ERLOTINIB) | area under dose-response curve (VINORELBINE) | area under dose-response curve (PLX-4720) | area under dose-response curve (SUNITINIB) | area under dose-response curve (EVEROLIMUS) | area under dose-response curve (AZD4547) | area under dose-response curve (ETOPOSIDE) | area under dose-response curve [1] | area under dose-response curve (GEMCITABINE) | area under dose-response curve [2] | area under dose-response curve (MK0752) | area under dose-response curve (METHOTREXATE) | area under dose-response curve (MK2206)
93VU HEADNECK | 2.99 | 2.19 | 3.02 | 2.8 | 2.71 | 3.56 | 3.41 | 1.18 | 2 | 2.54 | 3.92 |  | 
143B BONE |  | 1.92 |  | 3.19 |  | 2.83 | 3.04 | 1.67 |  | 3.23 | 3.49 |  | 
A549 LUNG | 3.49 | 2.2 | 3.13 | 3.13 | 2.81 | 3.33 |  | 1.86 | 1.76 | 3.13 | 3.48 | 2.14 | 3.54
ASKA SYNOVIAL | 3.77 | 1.36 | 3.2 | 2.07 | 2.28 |  | 2.38 | 2.66 | 1.03 | 3.28 |  | 3.77 | 2.71
BT20 BREAST | 3.67 | 1.54 | 3 | 2.95 | 1.35 | 3.58 | 2.9 | 2.78 | 1.55 | 3.11 |  | 3.51 | 3.76
BT549 BREAST | 3.57 | 1.62 | 3.1 | 3.02 |  | 3.46 | 2.79 | 1 | 1.03 |  |  | 1.9 | 2.87
CME SYNOVIAL |  | 2.33 | 3.17 | 2.09 |  |  | 2.46 | 3.07 | 1.25 | 3.27 | 4.45 | 2.37 | 4.03
HCC38 BREAST | 4.24 | 2.07 | 3.09 |  | 2.92 | 2.93 |  | 1.16 | 1.01 | 3.59 | 4.01 |  | 4.11
HCC202 BREAST |  | 1.85 | 3.8 | 3.12 |  | 3.81 |  | 2.16 |  | 4.68 |  |  | 
HCC1806 BREAST |  | 1.33 | 2.86 | 2.29 | 2.74 | 3.6 | 2.5 | 0.463 | 0.258 |  | 3.93 | 1.55 | 
HELA CERVIX | 3.61 | 1.64 | 3.26 | 3.08 | 3.58 | 3.71 | 3.04 | 2.12 | 1.75 |  | 3.42 | 2.22 | 3.72
HMLE3 BREAST |  | 1.81 | 2.8 | 2.08 | 2.01 | 2.25 | 2.53 | 0.944 | 1.1 | 2.57 |  | 2.58 | 2.97
HMT3552 BREAST | 3.18 |  |  |  | 1.98 |  |  |  | 2.53 |  |  | 2.25 | 3.05
HOSMNG BONE | 3.19 | 2.25 |  | 3.15 | 3.27 | 3.3 |  | 2.58 | 1.49 | 3.32 | 3.3 | 1.71 | 2.72
HS578T BREAST |  | 1.28 | 2.96 |  | 1.77 | 3.18 | 2.59 | 1.45 | 3.12 | 3.18 | 3.05 | 2.46 | 2.94
HT1080 SOFT TISSUE | 3.44 | 1.38 | 3.25 | 3.16 | 2.11 |  | 2.29 | 1.07 | 1.22 | 3.16 | 3.29 | 1.8 | 3.42
HU09 BONE |  | 1.47 | 3.1 | 1.9 |  | 2.88 | 2.6 | 1.37 | 0.594 |  | 3.54 | 2.42 | 2.59
JURKAT HAEMATOPOIETIC AND LYMPHOID TISSUE |  | 1.24 | 3.23 | 3.06 | 1.76 |  | 2.15 | 0.653 | 1.01 |  | 3.4 | 1.35 | 2.74
LM7 BONE | 3.61 | 1.45 | 2.76 | 2.46 | 2.56 | 3.11 | 3.06 | 1.39 | 1.12 |  | 3.27 | 3 | 2.88
MDAMB157 BREAST | 3.29 | 1.41 | 3.07 | 2.52 | 2.25 | 2.38 | 2.68 | 1.55 |  | 2.81 |  | 3.15 | 
MDAMB453 BREAST |  | 1.31 | 3.35 | 3.27 | 1.43 | 2.88 | 3.71 | 1.76 | 1.47 | 3.37 | 3.54 | 2.93 | 2.65
MG63 BONE |  | 1.86 | 3.07 | 2.72 | 2.17 | 2.57 | 3.13 | 1.34 | 1.03 | 3.12 |  | 2.15 | 3.13
NCIH441 LUNG |  | 2.25 | 3.08 | 3.25 |  |  | 2.86 | 1.92 | 0.954 | 2.98 | 3.43 |  | 3.53

Test System | area under dose-response curve (ERLOTINIB) | area under dose-response curve (VINORELBINE) | area under dose-response curve (PLX-4720) | area under dose-response curve (SUNITINIB) | area under dose-response curve (EVEROLIMUS) | area under dose-response curve (AZD4547) | area under dose-response curve (ETOPOSIDE) | area under dose-response curve [1] | area under dose-response curve (GEMCITABINE) | area under dose-response curve [2] | area under dose-response curve (MK0752) | area under dose-response curve (METHOTREXATE) | area under dose-response curve (MK2206)
NOS1 BONE |  | 1.92 | 3.29 | 1.78 | 1.75 | 2.71 |  | 1.98 | 2.31 |  |  | 3.88 | 2.74
OSHN BONE | 3.68 | 1.83 | 3.06 | 3.18 | 3.41 | 3.57 | 3 | 1.67 |  | 3.24 |  | 1.28 | 3.58
RDES SOFT TISSUE | 4.03 | 1.91 | 2.9 | 2.98 | 3.46 |  | 2.91 | 2.66 | 1.4 | 4.3 | 3.76 | 1.28 | 
S68 BREAST |  | 1.53 | 2.92 | 2.58 | 1.39 | 3.45 | 2.65 | 1.4 | 1.22 | 2.84 | 3.26 | 3.64 | 2.5
SAOS2 BONE |  | 1.6 | 3.06 | 2.75 | 3.1 |  | 3.15 | 1.41 | 0.983 | 3.22 | 3.89 |  | 3.03
SCC36 HEADNECK | 2.92 | 1.6 | 2.88 | 2.53 | 3.13 |  |  | 0.887 | 2.34 |  |  | 2.83 | 2.91
SCC47 HEADNECK |  | 1.84 | 3.12 | 3.14 | 3.2 | 3.44 | 3.17 | 1.99 | 2.22 | 2.91 |  | 2.96 | 3.26
SCC90 HEADNECK | 2.89 | 1.52 | 3.12 | 3.19 | 2.09 | 3.57 | 3.67 | 1.7 | 1.46 | 2.18 |  | 2.81 | 3.03
SG27 HEADNECK | 3.58 | 3.81 | 2.98 | 3.67 | 3.13 | 2.8 | 3.45 | 1.72 | 3.22 |  |  |  | 
SG28 HEADNECK |  | 2.47 | 2.51 | 2.12 |  |  | 3.66 | 2.12 |  | 2.72 | 3.56 |  | 
SG31 HEADNECK |  | 2.07 | 2.73 | 2.47 | 2.18 | 3.1 |  | 2.15 | 2.51 | 2.78 | 3.35 | 3.94 | 
SG32 HEADNECK | 3.57 | 1.95 | 2 | 1.96 |  | 3.26 |  | 1.04 | 1.77 | 2.65 | 3.82 | 3.65 | 3.68
SIHA CERVIX |  | 2.25 | 3.18 | 3.13 | 2.23 | 3.02 |  | 1.55 | 2.4 | 2.76 | 3.79 | 2.99 | 3.01
SJSA1 BONE |  | 2.09 | 3.17 | 3.16 | 5.2 | 3.5 | 3.13 | 1.92 | 5.62 | 3.08 | 3.53 | 5.58 | 3.03
SKBR3 BREAST | 3.55 | 1.38 | 3.02 | 2.46 | 1.31 | 3.75 | 3.1 | 1.62 | 1.76 |  | 3.29 | 2.7 | 2.48
SUM44 BREAST | 4.26 | 1.61 | 3.17 |  | 2.5 | 3.48 | 3.47 | 3.07 |  | 3.4 | 3.38 | 3.95 | 
SUM149 BREAST | 2.76 | 1.46 |  | 2.12 | 1.67 |  | 2.41 | 1.13 | 0.539 | 2.25 |  | 2.98 | 3.19
SUM149.B1*.S BREAST | 3.76 | 2.37 |  | 2.35 | 3.22 | 3.88 |  | 1.97 | 1.44 | 2.74 | 3.78 |  | 3.63
SUM159 BREAST | 3.56 | 1.98 |  | 3.06 | 2.88 | 3.84 | 2.91 | 2.39 | 1.68 | 2.75 |  | 3.2 | 3.58
VCAP PROSTATE | 3.63 | 1.32 | 3.22 | 3.14 | 3.02 |  |  | 1.29 | 1.1 | 3.17 | 3.78 | 3.36 | 2.65
VP229 BREAST | 2.92 | 2 | 3.1 | 2.41 | 1.96 |  | 3.78 | 1.92 | 1.97 |  |  | 3.77 | 
YAMATO SYNOVIAL | 4.34 | 2.04 | 2.65 | 1.58 | 2.2 |  |  | 2.79 | 1.25 | 3.26 | 4.77 | 2.44 | 2.75
ZR751 BREAST |  | 1.87 | 2.73 | 3.62 | 1.57 | 3.05 |  | 1.83 | 2.02 | 2.56 | 3.79 | 2.86 | 1.96
